One block for each compound: values may come before it. Activity calls are given as the source filed them. No cut-off for these calls is given here.
Tests used:
[1] = biological target: Serine/threonine-protein kinase B-raf (Homo sapiens, UniProt P15056); experiment: Inhibition of B-Raf by fluorescence anisotropy binding assay
Cytochrome P450 2C9 = Cytochrome P450 2C9 (Homo sapiens, UniProt P11712); experiment: Inhibition of CYP2C9; type: ADME
Cytochrome P450 2D6 = Cytochrome P450 2D6 (Homo sapiens, UniProt P10635); experiment: Inhibition of CYP2D6; type: ADME
[2] = biological target: RAC-alpha serine/threonine-protein kinase (Homo sapiens) (UniProt P31749); experiment: Inhibition of AKT1 at 30 uM
[3] = biological target: Tyrosine-protein kinase BTK (Homo sapiens) (UniProt Q06187); experiment: Inhibition of BTK at 30 uM
[4] = biological target: Cyclin-dependent kinase 2 (Homo sapiens) (UniProt P24941); experiment: Inhibition of CDK2 at 30 uM
[5] = biological target: Receptor tyrosine-protein kinase erbB-4 (Homo sapiens) (UniProt Q15303); experiment: Inhibition of ERBB4 at 30 uM
[6] = biological target: Mitogen-activated protein kinase 1 (Homo sapiens) (UniProt P28482); experiment: Inhibition of ERK2 at 30 uM
[7] = biological target: Glycogen synthase kinase-3 beta (Homo sapiens) (UniProt P49841); experiment: Inhibition of GSK3b at 30 uM
[8] = biological target: Insulin-like growth factor 1 receptor (Homo sapiens) (UniProt P08069); experiment: Inhibition of IGF1R at 30 uM
[9] = biological target: T1, Inhibitor of nuclear factor kappa-B kinase subunit beta (Homo sapiens) (UniProt O14920); experiment: Inhibition of IKK2 at 30 uM
T1 sequence (whole entry): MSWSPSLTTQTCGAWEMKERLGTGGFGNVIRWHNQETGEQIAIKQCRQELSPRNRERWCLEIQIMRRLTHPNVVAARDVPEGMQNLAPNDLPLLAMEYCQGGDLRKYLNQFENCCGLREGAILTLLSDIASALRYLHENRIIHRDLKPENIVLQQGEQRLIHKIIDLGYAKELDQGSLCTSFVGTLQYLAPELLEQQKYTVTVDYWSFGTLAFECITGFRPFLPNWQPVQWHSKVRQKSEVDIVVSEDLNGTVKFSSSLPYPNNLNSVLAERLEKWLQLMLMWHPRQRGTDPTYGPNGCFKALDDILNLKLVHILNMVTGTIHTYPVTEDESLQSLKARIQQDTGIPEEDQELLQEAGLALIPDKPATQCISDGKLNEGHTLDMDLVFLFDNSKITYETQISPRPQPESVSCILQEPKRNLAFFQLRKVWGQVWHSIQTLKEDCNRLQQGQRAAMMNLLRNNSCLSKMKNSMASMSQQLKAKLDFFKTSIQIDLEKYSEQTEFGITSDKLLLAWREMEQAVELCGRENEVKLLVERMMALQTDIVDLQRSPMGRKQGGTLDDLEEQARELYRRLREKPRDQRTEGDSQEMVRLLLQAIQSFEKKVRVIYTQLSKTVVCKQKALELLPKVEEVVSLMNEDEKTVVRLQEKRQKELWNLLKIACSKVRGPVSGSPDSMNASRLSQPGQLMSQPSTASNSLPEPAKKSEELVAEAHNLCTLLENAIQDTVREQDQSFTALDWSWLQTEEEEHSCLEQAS

[10] = biological target: T2, Serine/threonine-protein kinase Sgk1 (Homo sapiens) (UniProt O00141); experiment: Inhibition of SGK1 at 30 uM
T2 sequence (whole entry): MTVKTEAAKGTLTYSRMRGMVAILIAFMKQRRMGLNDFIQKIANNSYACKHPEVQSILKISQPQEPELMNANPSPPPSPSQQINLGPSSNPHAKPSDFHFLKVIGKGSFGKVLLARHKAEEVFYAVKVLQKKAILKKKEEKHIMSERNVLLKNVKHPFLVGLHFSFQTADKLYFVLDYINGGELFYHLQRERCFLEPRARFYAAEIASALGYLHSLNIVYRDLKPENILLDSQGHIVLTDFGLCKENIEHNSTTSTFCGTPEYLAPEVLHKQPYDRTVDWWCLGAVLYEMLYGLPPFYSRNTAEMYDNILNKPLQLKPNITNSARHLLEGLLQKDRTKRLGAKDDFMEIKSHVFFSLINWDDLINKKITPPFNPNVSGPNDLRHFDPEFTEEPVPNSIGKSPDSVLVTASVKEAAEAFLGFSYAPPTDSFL

[11] = biological target: T3, Tyrosine-protein kinase ZAP-70 (Homo sapiens) (UniProt P43403); experiment: Inhibition of ZAP70 at 30 uM
T3 sequence (whole entry): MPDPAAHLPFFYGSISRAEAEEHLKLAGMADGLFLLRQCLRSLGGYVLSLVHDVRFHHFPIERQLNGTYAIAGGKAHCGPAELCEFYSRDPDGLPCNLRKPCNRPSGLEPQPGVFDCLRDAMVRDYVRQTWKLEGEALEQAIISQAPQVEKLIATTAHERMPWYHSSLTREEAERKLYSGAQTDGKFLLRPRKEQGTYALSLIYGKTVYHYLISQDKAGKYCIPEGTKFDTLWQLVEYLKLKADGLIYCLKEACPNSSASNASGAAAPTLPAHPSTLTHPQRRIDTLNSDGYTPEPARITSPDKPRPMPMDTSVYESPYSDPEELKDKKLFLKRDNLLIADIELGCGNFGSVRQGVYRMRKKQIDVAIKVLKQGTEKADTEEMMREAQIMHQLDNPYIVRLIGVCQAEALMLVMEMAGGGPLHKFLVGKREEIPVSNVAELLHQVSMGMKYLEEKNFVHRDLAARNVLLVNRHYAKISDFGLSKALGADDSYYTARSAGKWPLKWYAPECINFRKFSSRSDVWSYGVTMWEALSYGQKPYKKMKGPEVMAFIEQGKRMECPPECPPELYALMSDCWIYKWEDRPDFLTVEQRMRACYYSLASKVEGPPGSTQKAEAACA

[12] = Selectivity for B-Raf over c-Met
[13] = Selectivity for B-Raf over VEGFR2
[14] = biological target: Tyrosine-protein kinase SYK (Homo sapiens) (UniProt P43405); experiment: Inhibition of SYK at 30 uM

Sequence of Serine/threonine-protein kinase B-raf (P15056 whole entry): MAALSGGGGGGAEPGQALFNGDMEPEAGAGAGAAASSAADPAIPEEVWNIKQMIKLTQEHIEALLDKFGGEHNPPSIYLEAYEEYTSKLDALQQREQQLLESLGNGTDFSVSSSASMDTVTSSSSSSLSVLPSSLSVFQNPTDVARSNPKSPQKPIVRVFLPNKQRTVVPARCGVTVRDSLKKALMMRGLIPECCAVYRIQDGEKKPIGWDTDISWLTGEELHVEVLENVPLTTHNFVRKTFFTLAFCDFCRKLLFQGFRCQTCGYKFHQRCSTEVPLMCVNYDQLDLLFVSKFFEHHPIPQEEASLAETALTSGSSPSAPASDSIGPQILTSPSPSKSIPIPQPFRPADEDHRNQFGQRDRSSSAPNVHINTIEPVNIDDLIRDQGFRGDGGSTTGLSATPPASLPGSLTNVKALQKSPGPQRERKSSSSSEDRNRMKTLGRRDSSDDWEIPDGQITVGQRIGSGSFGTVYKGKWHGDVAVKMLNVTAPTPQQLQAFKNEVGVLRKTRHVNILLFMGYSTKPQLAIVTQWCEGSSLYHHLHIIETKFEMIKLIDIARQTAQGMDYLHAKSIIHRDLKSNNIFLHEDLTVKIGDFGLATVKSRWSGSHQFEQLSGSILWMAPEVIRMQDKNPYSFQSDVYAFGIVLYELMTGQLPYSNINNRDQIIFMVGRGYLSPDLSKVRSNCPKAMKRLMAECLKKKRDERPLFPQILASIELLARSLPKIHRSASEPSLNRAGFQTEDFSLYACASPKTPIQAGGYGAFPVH
Sequence of Cytochrome P450 2D6 (P10635 whole entry): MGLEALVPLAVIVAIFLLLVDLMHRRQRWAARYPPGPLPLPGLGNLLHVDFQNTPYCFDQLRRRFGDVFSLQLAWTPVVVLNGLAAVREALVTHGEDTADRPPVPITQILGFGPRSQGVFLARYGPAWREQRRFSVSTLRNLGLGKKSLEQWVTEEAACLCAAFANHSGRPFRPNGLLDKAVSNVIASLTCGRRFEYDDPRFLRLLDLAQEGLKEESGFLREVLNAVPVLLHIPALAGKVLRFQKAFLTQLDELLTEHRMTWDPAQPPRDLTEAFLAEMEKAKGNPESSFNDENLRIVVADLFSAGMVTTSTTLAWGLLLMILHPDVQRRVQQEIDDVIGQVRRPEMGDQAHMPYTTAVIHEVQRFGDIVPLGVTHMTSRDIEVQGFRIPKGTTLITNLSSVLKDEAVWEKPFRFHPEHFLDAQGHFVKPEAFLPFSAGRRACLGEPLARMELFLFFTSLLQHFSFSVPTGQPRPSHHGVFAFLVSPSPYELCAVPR
Sequence of Cytochrome P450 2C9 (P11712 whole entry): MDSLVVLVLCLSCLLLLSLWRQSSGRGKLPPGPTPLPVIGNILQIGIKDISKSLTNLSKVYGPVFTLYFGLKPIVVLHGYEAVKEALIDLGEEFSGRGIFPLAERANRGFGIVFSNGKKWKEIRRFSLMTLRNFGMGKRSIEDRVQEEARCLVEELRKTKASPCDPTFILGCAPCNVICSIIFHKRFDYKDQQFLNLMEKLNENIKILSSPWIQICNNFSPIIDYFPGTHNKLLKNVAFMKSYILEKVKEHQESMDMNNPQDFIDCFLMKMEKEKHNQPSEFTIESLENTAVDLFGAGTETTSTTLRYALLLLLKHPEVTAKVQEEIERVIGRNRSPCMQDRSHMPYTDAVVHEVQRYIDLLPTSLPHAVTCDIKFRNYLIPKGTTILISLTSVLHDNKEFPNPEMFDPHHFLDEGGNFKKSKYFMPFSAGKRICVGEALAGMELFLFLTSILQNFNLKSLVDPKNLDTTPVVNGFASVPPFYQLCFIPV
Sequence of Tyrosine-protein kinase BTK (Homo sapiens) (Q06187 whole entry): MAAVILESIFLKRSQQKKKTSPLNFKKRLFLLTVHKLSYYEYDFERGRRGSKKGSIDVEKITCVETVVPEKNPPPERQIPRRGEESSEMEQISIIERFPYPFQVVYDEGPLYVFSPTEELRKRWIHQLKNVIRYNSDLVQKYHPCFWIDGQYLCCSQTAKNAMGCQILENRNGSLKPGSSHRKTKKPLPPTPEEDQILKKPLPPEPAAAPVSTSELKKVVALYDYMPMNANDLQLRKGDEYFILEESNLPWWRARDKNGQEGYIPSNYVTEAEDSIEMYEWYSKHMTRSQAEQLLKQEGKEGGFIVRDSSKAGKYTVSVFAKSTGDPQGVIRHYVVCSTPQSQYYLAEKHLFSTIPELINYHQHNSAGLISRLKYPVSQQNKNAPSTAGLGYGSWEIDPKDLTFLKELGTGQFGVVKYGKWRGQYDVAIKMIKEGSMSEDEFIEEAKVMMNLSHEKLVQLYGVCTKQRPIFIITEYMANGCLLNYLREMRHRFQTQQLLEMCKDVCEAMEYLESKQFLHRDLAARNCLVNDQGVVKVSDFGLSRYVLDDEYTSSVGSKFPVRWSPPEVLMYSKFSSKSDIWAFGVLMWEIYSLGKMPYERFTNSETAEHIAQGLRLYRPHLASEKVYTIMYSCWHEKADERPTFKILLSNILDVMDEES
Sequence of Insulin-like growth factor 1 receptor (Homo sapiens) (P08069 31-736 limits assumed): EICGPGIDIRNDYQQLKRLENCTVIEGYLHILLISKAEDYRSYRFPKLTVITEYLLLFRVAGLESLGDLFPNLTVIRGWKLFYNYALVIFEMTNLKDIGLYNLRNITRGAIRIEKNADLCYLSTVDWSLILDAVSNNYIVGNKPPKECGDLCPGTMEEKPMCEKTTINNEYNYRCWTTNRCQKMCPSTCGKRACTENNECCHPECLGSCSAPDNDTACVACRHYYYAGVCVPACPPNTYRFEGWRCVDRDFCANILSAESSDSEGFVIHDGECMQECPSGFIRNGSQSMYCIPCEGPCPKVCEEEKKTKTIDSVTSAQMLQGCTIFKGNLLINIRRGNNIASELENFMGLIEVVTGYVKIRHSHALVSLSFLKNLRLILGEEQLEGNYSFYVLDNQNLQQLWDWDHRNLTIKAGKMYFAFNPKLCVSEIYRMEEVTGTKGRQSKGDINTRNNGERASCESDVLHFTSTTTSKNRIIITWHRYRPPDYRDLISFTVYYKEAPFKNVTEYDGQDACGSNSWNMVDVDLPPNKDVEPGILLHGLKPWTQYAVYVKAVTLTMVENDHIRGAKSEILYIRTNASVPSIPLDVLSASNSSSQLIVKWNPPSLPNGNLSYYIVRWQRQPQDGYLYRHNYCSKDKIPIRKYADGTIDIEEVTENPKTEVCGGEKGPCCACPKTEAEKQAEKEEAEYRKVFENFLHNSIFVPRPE
Sequence of Insulin-like growth factor 1 receptor (Homo sapiens) (P08069 741-1367 limits assumed): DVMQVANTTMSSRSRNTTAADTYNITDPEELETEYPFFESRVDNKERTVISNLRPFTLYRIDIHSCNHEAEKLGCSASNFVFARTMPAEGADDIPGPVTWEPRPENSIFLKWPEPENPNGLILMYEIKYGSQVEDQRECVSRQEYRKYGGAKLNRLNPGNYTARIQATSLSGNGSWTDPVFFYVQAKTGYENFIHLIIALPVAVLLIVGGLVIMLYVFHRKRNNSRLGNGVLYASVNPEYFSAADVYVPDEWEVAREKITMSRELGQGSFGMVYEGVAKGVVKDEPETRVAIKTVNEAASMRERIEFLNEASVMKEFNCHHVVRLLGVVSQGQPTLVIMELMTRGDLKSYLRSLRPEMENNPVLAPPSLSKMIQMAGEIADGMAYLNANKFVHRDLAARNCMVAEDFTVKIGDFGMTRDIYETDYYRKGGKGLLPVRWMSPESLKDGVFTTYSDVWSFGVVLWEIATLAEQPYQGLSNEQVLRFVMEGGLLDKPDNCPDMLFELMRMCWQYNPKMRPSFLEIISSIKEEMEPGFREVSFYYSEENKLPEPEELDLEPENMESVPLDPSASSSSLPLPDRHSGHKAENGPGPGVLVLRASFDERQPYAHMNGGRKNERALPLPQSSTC
Sequence of Receptor tyrosine-protein kinase erbB-4 (Homo sapiens) (Q15303 whole entry): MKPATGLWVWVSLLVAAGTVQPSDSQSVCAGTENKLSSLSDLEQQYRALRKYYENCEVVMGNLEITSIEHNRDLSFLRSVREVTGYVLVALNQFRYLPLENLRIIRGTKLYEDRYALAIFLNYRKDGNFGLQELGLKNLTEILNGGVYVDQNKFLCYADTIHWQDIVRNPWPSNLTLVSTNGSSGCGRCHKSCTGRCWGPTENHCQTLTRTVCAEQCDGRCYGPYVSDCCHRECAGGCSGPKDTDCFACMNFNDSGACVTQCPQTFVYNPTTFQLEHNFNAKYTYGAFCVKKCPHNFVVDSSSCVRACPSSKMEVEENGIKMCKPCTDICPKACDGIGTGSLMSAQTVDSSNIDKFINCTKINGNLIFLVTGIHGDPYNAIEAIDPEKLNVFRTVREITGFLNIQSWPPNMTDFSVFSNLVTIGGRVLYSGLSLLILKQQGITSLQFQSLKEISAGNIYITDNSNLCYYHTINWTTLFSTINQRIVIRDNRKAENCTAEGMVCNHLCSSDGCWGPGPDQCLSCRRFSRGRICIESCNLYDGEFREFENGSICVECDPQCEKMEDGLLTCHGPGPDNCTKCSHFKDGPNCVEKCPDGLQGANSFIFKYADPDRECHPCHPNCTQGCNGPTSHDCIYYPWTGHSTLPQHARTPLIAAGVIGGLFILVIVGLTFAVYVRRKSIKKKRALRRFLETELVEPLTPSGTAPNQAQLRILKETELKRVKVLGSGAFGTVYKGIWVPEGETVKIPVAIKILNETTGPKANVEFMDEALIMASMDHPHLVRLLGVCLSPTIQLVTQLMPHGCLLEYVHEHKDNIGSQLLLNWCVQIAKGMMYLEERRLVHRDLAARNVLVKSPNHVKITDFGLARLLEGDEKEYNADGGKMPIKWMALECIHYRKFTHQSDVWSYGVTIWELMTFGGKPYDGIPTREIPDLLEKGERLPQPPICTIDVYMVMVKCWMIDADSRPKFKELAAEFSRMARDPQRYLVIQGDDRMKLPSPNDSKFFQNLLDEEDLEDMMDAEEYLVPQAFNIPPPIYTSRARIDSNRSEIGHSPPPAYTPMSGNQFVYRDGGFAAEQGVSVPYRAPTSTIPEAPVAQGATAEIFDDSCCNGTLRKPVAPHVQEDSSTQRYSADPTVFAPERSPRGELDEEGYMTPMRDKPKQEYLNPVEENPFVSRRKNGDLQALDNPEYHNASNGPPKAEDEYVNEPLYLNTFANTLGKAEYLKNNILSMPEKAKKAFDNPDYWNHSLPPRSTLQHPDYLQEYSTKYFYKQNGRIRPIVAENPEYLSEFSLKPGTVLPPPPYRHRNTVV

Structure (SMILES): CCn1cc(-c2ccnc3[nH]ccc23)c(-c2cccc(NC(=O)Nc3cccc(OC)c3)c2)n1
- IC50 [1]: 2.1 nM
- IC50 (Cytochrome P450 2C9): 316 nM
- IC50 (Cytochrome P450 2D6): 200 nM

- IC50 [1]: 25.7 nM
Structure (SMILES): CCn1cc(-c2ccnc3[nH]ccc23)c(-c2cccc(NC(=O)Nc3c(F)cccc3F)c2)n1

Structure (SMILES): CCn1cc(-c2ccnc3[nH]ccc23)c(-c2cccc(NC(=O)NC3CCCCC3)c2)n1
- IC50 [1]: 41.7 nM

- IC50 [1]: 3.9 nM
Structure (SMILES): CCn1cc(-c2ccnc3[nH]ccc23)c(-c2cccc(NC(=O)Nc3cc(C(F)(F)F)ccc3F)c2)n1

- IC50 [1]: 5.4 nM
Structure (SMILES): CCn1cc(-c2ccnc3[nH]ccc23)c(-c2cccc(NC(=O)Nc3ccc(Cl)c(C(F)(F)F)c3)c2)n1

- IC50 [1]: 33.9 nM
Structure (SMILES): CCOC(=O)c1cc2c(-c3cn(CC)nc3-c3cccc(NC(=O)Nc4ccccc4)c3)ccnc2[nH]1

- Activity [2]: inactive
- Activity [3]: inactive
- Activity [4]: inactive
- Activity [5]: inactive
- Activity [6]: inactive
- Activity [7]: inactive
- Activity [8]: inactive
- Activity [9]: inactive
- Activity [10]: inactive
- Activity [11]: inactive
- fold change (FC) [12]: 100
- fold change (FC) [13]: 100
- IC50 (Cytochrome P450 2C9): 1260 nM
- IC50 (Cytochrome P450 2D6): 5010 nM
- Activity [14]: inactive
Structure (SMILES): CCn1cc(-c2ccnc3[nH]ccc23)c(-c2cccc(NC(=O)Nc3ccc(C(F)(F)F)cc3)c2)n1

- IC50 [1]: 79.4 nM
Structure (SMILES): CCn1cc(-c2ccnc3[nH]cc(Br)c23)c(-c2cccc(NC(=O)Nc3ccccc3)c2)n1

- IC50 [1]: 45.7 nM
Structure (SMILES): CCn1cc(-c2ccnc3[nH]c(C(=O)O)cc23)c(-c2cccc(NC(=O)Nc3ccccc3)c2)n1

— ChEMBL document CHEMBL1156556, “Knowledge-based design of 7-azaindoles as selective B-Raf inhibitors” (Bioorg Med Chem Lett, 2008)
